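Cells were grown in 96-well plates and exposed to each compound for 48 hours at five concentrations; endpoints were interpolated linearly between bracketing concentrations, or set to the highest concentration if not reached. GI50 marks 50% less growth.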 Calls of active or inactive are those of the source. Cut-off read from the data, not from the text of the source: active = GI50 up to about 1.1 µM and inactive = higher.
Legend:
Assay in all cases: DTP human tumour cell line panel, 48 h
786-0 = tested on: 786-0
A498 = tested on: A498
A549 = tested on: A549
ACHN = tested on: ACHN
BT-549 = tested on: BT-549
CAKI-1 = tested on: CAKI-1
CCRF-CEM = tested on: CCRF-CEM
COLO 205 = tested on: COLO 205
DU-145 = tested on: DU-145
EKVX = tested on: EKVX
HCT-116 = tested on: HCT-116
HCT-15 = tested on: HCT-15
HL-60 = tested on: HL-60
HOP-62 = tested on: HOP-62
HOP-92 = tested on: HOP-92
HT-29 = tested on: HT-29
Hs-578T = tested on: Hs-578T
IGROV-1 = tested on: IGROV-1
K562 = tested on: K562
LOX IMVI = tested on: LOX IMVI
M14 = tested on: M14
MCF7 = tested on: MCF7
MDA-MB-231 = tested on: MDA-MB-231
MDA-MB-435 = tested on: MDA-MB-435
MDA-N = tested on: MDA-N
MOLT-4 = tested on: MOLT-4
Malme-3M = tested on: Malme-3M
NCI-H226 = tested on: NCI-H226
NCI-H23 = tested on: NCI-H23
NCI-H522 = tested on: NCI-H522
NCI/ADR-RES = tested on: NCI/ADR-RES
OVCAR-3 = tested on: OVCAR-3
OVCAR-4 = tested on: OVCAR-4
OVCAR-5 = tested on: OVCAR-5
OVCAR-8 = tested on: OVCAR-8
PC-3 = tested on: PC-3
RPMI-8226 = tested on: RPMI-8226
RXF 393 = tested on: RXF 393
SF-268 = tested on: SF-268
SF-295 = tested on: SF-295
SF-539 = tested on: SF-539
SK-MEL-28 = tested on: SK-MEL-28
SK-MEL-2 = tested on: SK-MEL-2
SK-MEL-5 = tested on: SK-MEL-5
SK-OV-3 = tested on: SK-OV-3
SN12C = tested on: SN12C
SNB-19 = tested on: SNB-19
SNB-75 = tested on: SNB-75
T47D = tested on: T47D
TK-10 = tested on: TK-10
U-251 = tested on: U-251
UACC-257 = tested on: UACC-257
UACC-62 = tested on: UACC-62
UO-31 = tested on: UO-31
HCC 2998 = tested on: HCC 2998
KM12 = tested on: KM12
NCI-H460 = tested on: NCI-H460
SR = tested on: SR
SW-620 = tested on: SW-620

Measured: GI50

C[N+](C)(C)/C=N\c1cccc2nsnc12
> 100 µM: HCT-15
inactive: 786-0 > 100 µM | A498 > 100 µM | A549 > 100 µM | ACHN > 100 µM | BT-549 > 100 µM | CAKI-1 > 100 µM | CCRF-CEM > 100 µM | COLO 205 > 100 µM | DU-145 > 100 µM | EKVX > 100 µM | HCT-116 > 100 µM | HL-60 > 100 µM | HOP-62 > 100 µM | HOP-92 > 100 µM | HT-29 > 100 µM | Hs-578T > 100 µM | IGROV-1 > 100 µM | K562 > 100 µM | LOX IMVI > 100 µM | M14 > 100 µM | MCF7 > 100 µM | MDA-MB-231 > 100 µM | MDA-MB-435 > 100 µM | MDA-N > 100 µM | MOLT-4 > 100 µM | Malme-3M > 100 µM | NCI-H226 > 100 µM | NCI-H23 > 100 µM | NCI-H522 > 100 µM | NCI/ADR-RES > 100 µM | OVCAR-3 > 100 µM | OVCAR-4 > 100 µM | OVCAR-5 > 100 µM | OVCAR-8 > 100 µM | PC-3 > 100 µM | RPMI-8226 > 100 µM | RXF 393 > 100 µM | SF-268 > 100 µM | SF-295 > 100 µM | SF-539 > 100 µM | SK-MEL-28 > 100 µM | SK-MEL-2 > 100 µM | SK-MEL-5 > 100 µM | SK-OV-3 > 100 µM | SN12C > 100 µM | SNB-19 > 100 µM | SNB-75 > 100 µM | T47D > 100 µM | TK-10 > 100 µM | U-251 > 100 µM | UACC-257 > 100 µM | UACC-62 > 100 µM | UO-31 > 100 µM

O=C1C(O)=C(CCCCCCCCC2CCCCC2)C(=O)c2ccccc21 [MENOCTONE]
inactive: 786-0 6.01 µM | A549 5.58 µM | ACHN 2.93 µM | BT-549 11.7 µM | CAKI-1 5.5 µM | CCRF-CEM 2.72 µM | COLO 205 8.45 µM | DU-145 7.45 µM | EKVX 4.55 µM | HCC 2998 8.69 µM | HCT-116 3.33 µM | HOP-62 11.6 µM | HOP-92 10 µM | HT-29 12 µM | Hs-578T 12.4 µM | IGROV-1 5.3 µM | K562 2.51 µM | KM12 8.49 µM | LOX IMVI 3.6 µM | M14 10.8 µM | MCF7 6.41 µM | MDA-MB-231 4.56 µM | MDA-MB-435 4.99 µM | MDA-N 4.75 µM | MOLT-4 2.58 µM | Malme-3M 1.3 µM | NCI-H23 3.33 µM | NCI-H460 4.3 µM | NCI-H522 6.24 µM | NCI/ADR-RES 6.34 µM | OVCAR-3 10.7 µM | OVCAR-4 16.5 µM | OVCAR-5 17 µM | OVCAR-8 8.67 µM | PC-3 5.09 µM | RPMI-8226 6.15 µM | SF-268 7.03 µM | SF-295 6.98 µM | SF-539 7.53 µM | SK-MEL-28 11.4 µM | SK-MEL-2 11.8 µM | SK-MEL-5 10.4 µM | SK-OV-3 16.1 µM | SN12C 7.89 µM | SNB-19 9.86 µM | SNB-75 10.6 µM | SR 6.4 µM | SW-620 4.23 µM | T47D 5.5 µM | TK-10 14.7 µM | U-251 5.71 µM | UACC-257 6.28 µM | UACC-62 6.05 µM | UO-31 8.34 µM
4.69 µM: HCT-15
active: HL-60 1 µM

From ChEMBL document CHEMBL1201862, “PubChem BioAssay data set” (2004)
